Each structure is given as a SMILES string.

The nature of data set [1]: Stability test: remaining dye in liquid hair dye base first preparation by HPLC. In kind it is physicochemical. Conditions: finding stated in text. How it is done:
50 g of a liquid hair dye base (Bigen Speedy Color, manufactured by Hoyu Co. Ltd.) was weighed into a separable flask, and 0.1 g of thioglycerol was added. After the above separable flask was purged with nitrogen gas, the whole was stirred under a flow of nitrogen gas. After the resultant was divided into 40 g each in a 100 ml shampoo bottle and purging with nitrogen gas was performed, the bottle was capped, thereby a liquid hair dye base first preparation being prepared.
The liquid hair dye base first preparation of Example 1 was stored in a constant-temperature tank set at room temperature or 40° C. for 30 days. This first preparation was used as a sample.
About 4 g of an acetonitrile solution containing 500 ppm of benzonitrile was placed in a 10 mL sample vial and then the amount was accurately measured. About 0.2 g of the above sample was added thereto and the amount was accurately measured, followed by thorough mixing. The liquid in the sample vial was sucked by means of a syringe and was placed in a vial under filtration. Then, it was analyzed by means of a column ODS-80A in high performance liquid chromatography (HP 1100 manufactured by Hewlett-Packard Company) to measure amounts of remaining dyes in the sample.
A liquid hair dye base first preparation was prepared by performing the same operations as in Example 1 except that thioglycolic acid was used instead of thioglycerol. […]

A short description of data set [2]: Color tone of liquid hair dye base first preparation after storage, visually observed by three panelists. In kind it is physicochemical. The conditions noted are these: for Color tone: room temperature; for concentration at which a stabilization effect was shown: stored at room temperature for 2 weeks, judged from full-color photographs. As to the method:
40 g of a liquid hair dye base first preparation obtained by adding thioglycerol to a liquid hair dye base (Bigen Speedy Color, manufactured by Hoyu Co. Ltd.) in an amount adjusted as shown in Table 2 was placed in a 100 ml shampoo bottle and, after purging with nitrogen gas was performed, the bottle was capped and stored at room temperature.
Immediately after the passage of a given period of storage time of the shampoo bottle in which the above liquid hair dye base first preparation was placed, the color tone of the liquid hair dye base first preparation was visually observed by three panelists. The color tones in the table show the color tones of the results observed by the largest number of the panelists (the same shall apply hereinafter). Moreover, photographs of change in color tone of the hair dye base first preparation immediately after the passage of the above given period are shown in FIG. 1 to FIG. 3. […]

[3] abbreviates: 0.1 ppm (0.00001 %) added, 1 Day.
[4] abbreviates: 0.1 ppm (0.00001 %) added, 2 Weeks.
Setting [5] is: 0.1 ppm (0.00001 %) added, 4 Days.
[6] abbreviates: 1 ppm (0.0001 %) added, 2 Weeks.
Where [7] appears, read: 10 ppm (0.001 %) added, 2 Weeks.
[8] abbreviates: 100 ppm (0.01 %) added, 2 Weeks.
Where [9] appears, read: 1000 ppm (0.1 %) added, 2 Weeks.

Turning to `O=C(O)CS` [thioglycolic acid], in data set [1], the “effect on stability of p-nitro-o-phenylenediamine” value is given as “promotes the deterioration” and the “effect on stability of resorcin” value is given as “promotes the deterioration”.
`OCCS` [thioglycol, 2-mercaptoethanol]: the Color tone entry in data set [2] (0.0001 ppm added, 1 Day) was “black”; in data set [2] (0.0001 ppm added, 2 Weeks) it was “brown”; in data set [2] (0.0001 ppm added, 4 Days) it was “black”; in data set [2] (0.001 ppm added, 1 Day), “black”; in data set [2] (0.001 ppm added, 2 Weeks), “brown”; in data set [2] (0.001 ppm added, 4 Days) it was “black”. The Color tone entry in data set [2] (0.01 ppm added, 1 Day) is given as “black”; in data set [2] (0.01 ppm added, 2 Weeks), “brown”; in data set [2] (0.01 ppm added, 4 Days) it was “black”; in data set [2] (setting [3]), “black”; in data set [2] (setting [4]) it was “brown”; in data set [2] (setting [5]) it was “black”. Moreover, the Color tone entry in data set [2] (1 ppm (0.0001 %) added, 1 Day) was “black”; in data set [2] (setting [6]) it was “brown”; in data set [2] (1 ppm (0.0001 %) added, 4 Days), “black”; in data set [2] (10 ppm (0.001 %) added, 1 Day) it was “black”; in data set [2] (setting [7]), “brown”; in data set [2] (10 ppm (0.001 %) added, 4 Days) it was “black”. Also, the Color tone result in data set [2] (100 ppm (0.01 %) added, 1 Day) is listed as “black”; in data set [2] (setting [8]), “brown”; in data set [2] (100 ppm (0.01 %) added, 4 Days), “black”; in data set [2] (1000 ppm (0.1 %) added, 1 Day) it was “brown”; in data set [2] (setting [9]), “orange”; in data set [2] (1000 ppm (0.1 %) added, 4 Days), “orange”. Further, the Color tone entry is on record as “orange” in data set [2] (10000 ppm (1 %) added, 1 Day); “orange” in data set [2] (10000 ppm (1 %) added, 2 Weeks); “orange” in data set [2] (10000 ppm (1 %) added, 4 Days). In data set [2], the “concentration at which a stabilization effect was shown” value is recorded as not above 0.0001 ppm.
For the compound `CC(C)=CCC/C(C)=C/CS` [thiogeraniol, (E)-3,7-dimethyl-2,6-octadien-1-thiol], the Color tone result in data set [2] (0.0001 ppm added, 1 Day) is listed as “black”; in data set [2] (0.0001 ppm added, 2 Weeks) it was “brown”; in data set [2] (0.0001 ppm added, 4 Days), “black”; in data set [2] (0.001 ppm added, 1 Day) it was “black”; in data set [2] (0.001 ppm added, 2 Weeks), “brown”; in data set [2] (0.001 ppm added, 4 Days), “black”. The Color tone result in data set [2] (0.01 ppm added, 1 Day) is recorded as “black”; in data set [2] (0.01 ppm added, 2 Weeks), “brown”; in data set [2] (0.01 ppm added, 4 Days), “black”; in data set [2] (setting [3]), “black”; in data set [2] (setting [4]), “brown”; in data set [2] (setting [5]), “black”. Besides, the Color tone entry is reported as “black” in data set [2] (1 ppm (0.0001 %) added, 1 Day); “brown” in data set [2] (setting [6]); “black” in data set [2] (1 ppm (0.0001 %) added, 4 Days); “black” in data set [2] (10 ppm (0.001 %) added, 1 Day); “brown” in data set [2] (setting [7]); “black” in data set [2] (10 ppm (0.001 %) added, 4 Days). The Color tone result in data set [2] (100 ppm (0.01 %) added, 1 Day) is recorded as “black”; in data set [2] (setting [8]) it was “brown”; in data set [2] (100 ppm (0.01 %) added, 4 Days), “black”; in data set [2] (1000 ppm (0.1 %) added, 1 Day), “brown”; in data set [2] (setting [9]), “brown”; in data set [2] (1000 ppm (0.1 %) added, 4 Days) it was “black”. Besides, the Color tone result in data set [2] (10000 ppm (1 %) added, 1 Day) is recorded as “orange”; in data set [2] (10000 ppm (1 %) added, 2 Weeks), “orange”; in data set [2] (10000 ppm (1 %) added, 4 Days), “orange”. The “concentration at which a stabilization effect was shown” value in data set [2] is not above 0.0001 ppm.

The values above are taken from US7753966B2, “Hair dye stabilizer” (Takasago International Corporation, priority 2006, dated 2010).
